# Assay results reported in US20230113037A1 (Bayer Aktiengesellschaft, priority 2019, published 2023).
# Like-named read-outs stand apart in the source and are kept apart here.
# Assays:
# AHR [1] = target: T1, AHR (Homo sapiens, UniProt P35869); experiment: In vitro assay 1: antagonism in human cell line (AHR transactivation, firefly luciferase reporter, kynurenic acid prestimulated); assay type: cell-based; details: AHR Antagonism Human IC50 [M]
# T1 construct: U87 MG glioblastoma cells (ATCC #HTB-14) endogenously expressing AHR; endogenous in cells; host or cells: U87 MG glioblastoma cells (ATCC #HTB-14)
# T1 sequence (P35869 11-848): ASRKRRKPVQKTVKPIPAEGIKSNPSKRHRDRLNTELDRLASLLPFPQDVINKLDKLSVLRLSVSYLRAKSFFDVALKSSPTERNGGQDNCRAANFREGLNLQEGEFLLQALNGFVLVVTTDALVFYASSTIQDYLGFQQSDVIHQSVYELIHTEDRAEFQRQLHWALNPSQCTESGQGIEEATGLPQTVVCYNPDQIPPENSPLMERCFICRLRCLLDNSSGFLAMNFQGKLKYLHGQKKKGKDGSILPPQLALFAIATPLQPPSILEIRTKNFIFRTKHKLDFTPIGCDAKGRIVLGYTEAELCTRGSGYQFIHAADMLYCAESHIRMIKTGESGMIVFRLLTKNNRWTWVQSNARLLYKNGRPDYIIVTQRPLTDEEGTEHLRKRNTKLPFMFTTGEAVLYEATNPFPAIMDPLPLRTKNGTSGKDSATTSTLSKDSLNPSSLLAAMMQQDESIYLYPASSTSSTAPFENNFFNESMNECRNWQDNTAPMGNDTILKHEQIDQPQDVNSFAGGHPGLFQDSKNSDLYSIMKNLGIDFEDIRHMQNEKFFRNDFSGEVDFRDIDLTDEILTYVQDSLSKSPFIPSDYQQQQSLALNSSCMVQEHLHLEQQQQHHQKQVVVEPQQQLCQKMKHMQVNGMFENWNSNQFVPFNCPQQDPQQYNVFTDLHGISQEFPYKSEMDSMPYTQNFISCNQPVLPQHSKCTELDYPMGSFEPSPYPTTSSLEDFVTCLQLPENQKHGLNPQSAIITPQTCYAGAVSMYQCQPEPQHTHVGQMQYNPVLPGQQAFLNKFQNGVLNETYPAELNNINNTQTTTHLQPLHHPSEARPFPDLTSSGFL
# Method in brief: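 Antagonism measured as loss of kynurenic acid-driven firefly luciferase from DRE reporter in stably transfected U87 MG cells; constitutive Renilla signal monitors cytotoxicity. Positive/negative control normalization, staurosporine 5 μM with 150 μM kynurenic acid as inhibition control; replicates given as mean or median.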
# AHR [2] = target: T2, AHR (Mus musculus, UniProt P30561); experiment: In vitro assay 3: antagonism in mouse cell line (AHR transactivation, firefly luciferase reporter, kynurenic acid prestimulated); assay type: cell-based
# T2 sequence (P30561 1-848 P471L/N533S/M589L): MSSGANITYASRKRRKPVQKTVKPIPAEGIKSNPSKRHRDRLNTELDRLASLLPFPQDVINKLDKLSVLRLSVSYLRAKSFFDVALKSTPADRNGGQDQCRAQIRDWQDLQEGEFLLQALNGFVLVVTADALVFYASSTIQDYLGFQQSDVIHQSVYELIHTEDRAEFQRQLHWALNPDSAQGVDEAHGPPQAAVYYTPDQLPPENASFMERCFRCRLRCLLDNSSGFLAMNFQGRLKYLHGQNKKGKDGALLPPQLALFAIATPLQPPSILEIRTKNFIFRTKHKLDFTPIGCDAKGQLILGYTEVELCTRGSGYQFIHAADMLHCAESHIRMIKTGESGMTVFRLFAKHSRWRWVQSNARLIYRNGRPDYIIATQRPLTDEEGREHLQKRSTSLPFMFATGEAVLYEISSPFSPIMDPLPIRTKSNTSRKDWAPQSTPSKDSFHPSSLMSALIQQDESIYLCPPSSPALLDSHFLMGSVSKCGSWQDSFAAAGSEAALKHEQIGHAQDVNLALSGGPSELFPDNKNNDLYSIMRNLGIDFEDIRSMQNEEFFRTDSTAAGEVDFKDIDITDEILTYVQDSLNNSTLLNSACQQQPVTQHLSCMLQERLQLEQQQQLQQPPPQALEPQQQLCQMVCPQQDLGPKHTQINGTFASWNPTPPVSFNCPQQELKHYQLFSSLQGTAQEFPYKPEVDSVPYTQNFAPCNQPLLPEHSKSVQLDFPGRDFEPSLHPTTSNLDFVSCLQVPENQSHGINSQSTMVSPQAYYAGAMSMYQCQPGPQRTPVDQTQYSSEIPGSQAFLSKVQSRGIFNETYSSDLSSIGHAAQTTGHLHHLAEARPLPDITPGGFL
# Method in brief: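 Kynurenic acid-prestimulated mouse reporter cells; stable AHR-inducible firefly luc construct with DRE sites in promoter. No-agonist wells = positive inhibition ctrl. Luminescence normalized to pos/neg ctrls; n>1 reported as mean or median.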
# [3] = mouse Hepa 1c1c7 cells, 200 μM kynurenic acid, 20 hours, read-out: AHR Antagonism Mouse IC50
# [4] = read-out: AHR Antagonism Mouse IC50, mouse Hepa 1c1c7 cells, 200 μM kynurenic acid, 20 hours
smiles,measurement,setting,value
"COc1ccc(-c2nc3c4cccc(Br)c4nc(N[C@H]4CCCCNC4=O)n3n2)c(OC(F)(F)F)c1 [Example 566, (3S)-3-({7-bromo-2-[4-methoxy-2-(trifluromethoxy)phenyl][1,2,4]triazolo[1,5-c]quinazolin-5-yl}amino)azepan-2-one]",IC50,AHR [1],1.76e-07 M
same,IC50,AHR [2]; [3],0.0208 µM
"CC[C@@H](Nc1nc2c(Br)cccc2c2nc(-c3ccc(OC)cc3OC(F)(F)F)nn12)C(N)=O [Example 567, (2R)-2-({7-bromo-2-[4-methoxy-2-(trifluoromethoxy)phenyl][1,2,4]triazolo[1,5-c]quinazolin-5-yl}amino)butanamide]",IC50,AHR [1],1.21e-08 M
same,IC50,AHR [2]; [4],0.00305 µM
"CC[C@H](Nc1nc2c(Br)cccc2c2nc(-c3ccc(OC)cc3OC(F)(F)F)nn12)C(N)=O [Example 568, (2S)-2-({7-bromo-2-[4-methoxy-2-(trifluoromethoxy)phenyl][1,2,4]triazolo[1,5-c]quinazolin-5-yl}amino)butanamide]",IC50,AHR [1],3.31e-07 M
same,IC50,AHR [2]; [4],0.0299 µM
"COc1ccc(-c2nc3c4cccc(Br)c4nc(N[C@@H]4CCCCNC4=O)n3n2)c(C(F)(F)F)c1 [Example 569, (3R)-3-({7-bromo-2-[4-methoxy-2-(trifluoromethyl)phenyl][1,2,4]triazolo[1,5-c]quinazolin-5-yl}amino)azepan-2-one]",IC50,AHR [1],8.4e-09 M
same,IC50,AHR [2]; [3],0.0043 µM
"COc1ccc(-c2nc3c4cccc(Br)c4nc(N[C@H]4CCCCNC4=O)n3n2)c(C(F)(F)F)c1 [Example 570, (3S)-3-({7-bromo-2-[4-methoxy-2-(trifluoromethyl)phenyl][1,2,4]triazolo[1,5-c]quinazolin-5-yl}amino)azepan-2-one]",IC50,AHR [1],8.08e-07 M
same,IC50,AHR [2]; [3],0.0807 µM
"O=C1NCCCC[C@H]1Nc1nc2c(Br)cccc2c2nc(-c3ccc(Cl)cc3OC(F)(F)F)nn12 [Example 571, (3R)-3-({7-bromo-2-[4-chloro-2-(trifluoromethoxy)phenyl][1,2,4]triazolo[1,5-c]quinazolin-5-yl}amino)azepan-2-one]",IC50,AHR [1],> 2e-05 M
same,IC50,AHR [2]; [3],0.0101 µM
"O=C1NCCCC[C@@H]1Nc1nc2c(Br)cccc2c2nc(-c3ccc(Cl)cc3OC(F)(F)F)nn12 [Example 572, (3S)-3-({7-bromo-2-[4-chloro-2-(trifluoromethoxy)phenyl][1,2,4]triazolo[1,5-c]quinazolin-5-yl}amino)azepan-2-one]",IC50,AHR [1],> 2e-05 M
same,IC50,AHR [2]; [3],0.131 µM
"CC[C@@H](Nc1nc2c(Br)cccc2c2nc(-c3ccc(Cl)cc3OC(F)(F)F)nn12)C(N)=O [Example 573, (2R)-2-({7-bromo-2-[4-chloro-2-(trifluoromethoxy)phenyl][1,2,4]triazolo[1,5-c]quinazolin-5-yl}amino)butanamide]",IC50,AHR [1],3.36e-09 M
same,IC50,AHR [2]; [3],0.00139 µM
"CC[C@H](Nc1nc2c(Br)cccc2c2nc(-c3ccc(Cl)cc3OC(F)(F)F)nn12)C(N)=O [Example 574, (2S)-2-({7-bromo-2-[4-chloro-2-(trifluoromethoxy)phenyl][1,2,4]triazolo[1,5-c]quinazolin-5-yl}amino)butanamide]",IC50,AHR [1],5e-09 M
same,IC50,AHR [2]; [3],0.00107 µM
"O=C1NCCCC[C@@H]1Nc1nc2c(Br)cccc2c2nc(-c3ccc(Cl)cc3OC(F)F)nn12 [Example 576, (3S)-3-({7-bromo-2-[4-chloro-2-(difluoromethoxy)phenyl][1,2,4]triazolo[1,5-c]quinazolin-5-yl}amino)azepan-2-one]",IC50,AHR [1],1.77e-08 M
same,IC50,AHR [2]; [3],0.00296 µM
"CC[C@@H](Nc1nc2c(Br)cccc2c2nc(-c3ccc(Cl)cc3OC(F)F)nn12)C(N)=O [Example 577, (2R)-2-({7-bromo-2-[4-chloro-2-(difluoromethoxy)phenyl][1,2,4]triazolo[1,5-c]quinazolin-5-yl}amino)butanamide]",IC50,AHR [1],6.6e-10 M
same,IC50,AHR [2]; [4],0.000281 µM
"CC(C)[C@@H](Nc1nc2c(Br)cccc2c2nc(-c3cnn(C)c3)nn12)C(N)=O [Example 578, N^2-[7-bromo-2-(1-methyl-1H-pyrazol-4-yl)[1,2,4]triazolo[1,5-c]quinazolin-5-yl]-D-valinamide]",IC50,AHR [1],1.25e-08 M
same,IC50,AHR [2]; [3],0.00291 µM
"O=C1NCCCC[C@H]1Nc1nc2c(Br)cccc2c2nc(-c3cn[nH]c3)nn12 [Example 579, (3R)-3-{[7-bromo-2-(1H-pyrazol-4-yl)[1,2,4]triazolo[1,5-c]quinazolin-5-yl]amino}azepan-2-one]",IC50,AHR [1],1.13e-08 M
same,IC50,AHR [2]; [3],0.0681 µM
"Cn1cc(-c2nc3c4cccc(Br)c4nc(N[C@H]4CCCCNC4=O)n3n2)cn1 [Example 580, (3S)-3-{[7-bromo-2-(1H-methyl-1H-pyrazol-4-yl)[1,2,4]triazolo[1,5-c]quinazolin-5-yl]amino}azepan-2-one]",IC50,AHR [1],5.4e-08 M
same,IC50,AHR [2]; [3],0.0614 µM
"Cn1cc(-c2nc3c4cccc(C(F)(F)F)c4nc(N[C@@H]4CCCCNC4=O)n3n2)cn1 [Example 583, (3R)-3-{[2-(1-methyl-1H-pyrazol-4-yl)-7-(trifluoromethyl)[1,2,4]triazolo[1,5-c]quinazolin-5-yl]amino}azepan-2-one]",IC50,AHR [1],9.48e-10 M
same,IC50,AHR [2]; [3],0.00311 µM
"Cn1cc(-c2nc3c4cccc(C(F)(F)F)c4nc(N[C@H]4CCCCNC4=O)n3n2)cn1 [Example 584, (3S)-3-{[2-(1-methyl-1H-pyrazol-4-yl)-7-(trifluoromethyl)[1,2,4]triazolo[1,5-c]quinazolin-5-yl]amino}azepan-2-one]",IC50,AHR [1],4.39e-08 M
same,IC50,AHR [2]; [3],0.153 µM
"Cn1cc(-c2nc3c4cccc(C(F)(F)F)c4nc(N[C@@H]4CCCNC4=O)n3n2)cn1 [Example 585, (3R)-3-{[2-(1-methyl-1H-pyrazol-4-yl)-7-(trifluoromethyl)[1,2,4]triazolo[1,5-c]quinazolin-5-yl]amino}piperidin-2-one]",IC50,AHR [1],6.91e-08 M
same,IC50,AHR [2]; [3],0.83 µM
"COc1ccc(-c2nc3c4cccc(C(C)C)c4nc(N[C@@H]4CCCCNC4=O)n3n2)cc1 [Example 587, (3R)-3-{[2-(4-methoxyphenyl)-7-(propan-2-yl)[1,2,4]triazolo[1,5-c]quinazolin-5-yl]amino}azepan-2-one]",IC50,AHR [1],7.7e-09 M
same,IC50,AHR [2]; [3],0.0206 µM
"CC(C)c1cccc2c1nc(N[C@@H]1CCCCNC1=O)n1nc(-c3cnn(C)c3)nc21 [Example 588, (3R)-3-{[2-(1-methyl-1H-pyrazol-4-yl)-7-(propan-2-yl)[1,2,4]triazolo[1,5-c]quinazolin-5-yl]amino}azepan-2-one]",IC50,AHR [1],1.84e-08 M
same,IC50,AHR [2]; [3],1.06 µM
"O=C1NCCCC[C@H]1Nc1nc2c(Br)cc(Br)cc2c2nc(-c3cccc(F)c3)nn12 [Example 592, (3R)-3-{[7,9-dibromo-2-(3-fluorophenyl)[1,2,4]triazolo[1,5-c]quinazolin-5-yl]amino}azepan-2-one]",IC50,AHR [1],5.21e-07 M
same,IC50,AHR [2]; [3],> 20 µM
"Cn1cc(-c2nc3c4cc(Br)cc(Br)c4nc(N[C@@H]4CCCCNC4=O)n3n2)cn1 [Example 594, (3R)-3-{[7,9-dibromo-2-(1-methyl-1H-pyrazol-4-yl)[1,2,4]triazolo[1,5-c]quinazolin-5-yl]amino}azepan-2-one]",IC50,AHR [1],5.01e-07 M
same,IC50,AHR [2]; [3],> 20 µM
